Reference: patent US20260356860A1, “2-SUBSTITUTED 3,4A,5,7,8,8A-HEXAHYDRO-4H-THIOPYRANO[4,3-DJPYRIMIDIN-4-ONES FOR WOUND TREATMENT” (priority 2022, published 2026)

Tests used:
[1] = system: HEK293 SuperTOPFlash reporter cells, Wnt promoter; test: HEK CELL Wnt Assay (luciferase reporter); type: cell-based; conditions: for IC50: serial dilutions, with or without 50 ng/mL Wnt3a, 18 h
Experimental: In order to determine the effect of the compounds of Formula (I) on Wnt inhibition, an in vitro assay using HEK293 SuperTOPFlash reporter cells, with the Wnt promoter driving a luciferase reporter gene, were utilized. 40,000 HEK293 SuperTOPFlash reporter cells were seeded, per well, in a 48 well plate for 24 hours, prior to administration of serial dilutions of the compound of Formula (I) to individual wells. Serial dilutions ranging from […] to 1 nM of the compound of Formula (I) were added with or without 50 ng/mL Wnt3a (Time Biosciences) and allowed to incubate with the reporter cells for 18 hours. Reporter cells with no treatment were used as negative control.

Tankyrase 2 (TNKS2) = target: T1, Tankyrase 2 (TNKS2) (Homo sapiens, UniProt Q9H2K2); test: TNK2 Binding Assay (Tankyrase 2 ribosylation, chemiluminescence); type: biochemical
T1 sequence (Q9H2K2 1-1166): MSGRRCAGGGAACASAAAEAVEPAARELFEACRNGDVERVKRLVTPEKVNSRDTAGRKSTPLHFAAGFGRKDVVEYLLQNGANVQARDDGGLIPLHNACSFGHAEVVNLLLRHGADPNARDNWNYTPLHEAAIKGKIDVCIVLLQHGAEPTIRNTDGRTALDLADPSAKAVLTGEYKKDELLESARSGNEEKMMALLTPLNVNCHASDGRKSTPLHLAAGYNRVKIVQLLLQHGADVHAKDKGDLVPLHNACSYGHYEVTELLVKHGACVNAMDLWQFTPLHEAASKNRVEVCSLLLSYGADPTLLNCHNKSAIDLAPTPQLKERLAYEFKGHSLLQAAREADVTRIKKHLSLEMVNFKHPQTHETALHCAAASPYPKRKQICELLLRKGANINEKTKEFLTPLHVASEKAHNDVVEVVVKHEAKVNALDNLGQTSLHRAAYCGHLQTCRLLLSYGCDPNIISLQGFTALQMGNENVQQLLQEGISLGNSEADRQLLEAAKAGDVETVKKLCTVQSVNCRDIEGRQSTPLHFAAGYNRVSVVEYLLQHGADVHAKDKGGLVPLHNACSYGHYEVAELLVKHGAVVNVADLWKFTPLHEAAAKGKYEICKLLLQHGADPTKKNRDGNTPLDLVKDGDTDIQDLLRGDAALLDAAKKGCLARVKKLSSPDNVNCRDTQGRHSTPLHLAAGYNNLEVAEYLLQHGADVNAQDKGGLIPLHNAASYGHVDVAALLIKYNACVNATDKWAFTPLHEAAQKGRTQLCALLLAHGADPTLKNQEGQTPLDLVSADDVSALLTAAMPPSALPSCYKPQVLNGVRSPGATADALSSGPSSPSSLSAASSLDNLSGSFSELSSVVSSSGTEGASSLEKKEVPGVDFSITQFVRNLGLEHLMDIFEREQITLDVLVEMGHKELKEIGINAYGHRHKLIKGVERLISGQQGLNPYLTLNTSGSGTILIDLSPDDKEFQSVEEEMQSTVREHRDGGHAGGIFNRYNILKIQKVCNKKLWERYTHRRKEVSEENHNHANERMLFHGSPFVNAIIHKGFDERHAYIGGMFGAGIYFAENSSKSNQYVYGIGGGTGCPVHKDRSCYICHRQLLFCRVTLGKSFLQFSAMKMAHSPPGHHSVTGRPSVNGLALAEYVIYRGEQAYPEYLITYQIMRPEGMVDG
Experimental: Tankyrase 2 assay (n=3) was performed with the following steps: step 1, coating a 96-well plate with 50 μL/well of histone solution; step 2, conducting ribosylation reaction; and step 3, detection.
Step 1: Coating a 96-Well Plate with 50 μL/Well of Histone Solution.
A 5× histone mixture was diluted 1:5 with PBS to make a 1× histone in PBS mixture. 50 μL of the histone mixture was added to each well and incubated at 4° C. overnight. The plate was washed three times using 200 μL PBST buffer (1×PBS containing 0.05% Tween*20 (polysorbate 20) per well. The plate was tapped onto a clean paper towel to remove the liquid. The wells were blocked by adding 200 μL of blocking buffer 3 to each well. The plate was incubated at room temperature for at least 90 minutes. The plate was washed three times with 200 μL PBST buffer. The plate was tapped onto a clean paper towel to remove the liquid.
A fresh solution of 10 mM DTT in water was prepared.
A master mix was prepared and delivered to each well (25 μL/well). Master mix delivered to each well: (2.5 μL of 10×PARP assay buffer (purchased from BPS Bioscience)+2.5 μL of PARP substrate mixture 2+17.5 μL of water+2.5 μL of 10 mM fresh DTT). The concentration of DTT in the master mix was 1 mM. 25 μL of master mix was added to each well.
1×PARP buffer with DTT was prepared. 10×PARP assay buffer was diluted to 1×PARP assay buffer containing DTT by adding 1 volume of 10×PARP assay buffer+1 volume of 10 mM DTT+8 volumes of water. The concentration of DTT in the 1×PARP assay buffer was 1 mM.
5 μL of a test inhibitor was added to each well labeled as “Test Inhibitor.” For the “Positive Control,” the PARP inhibitor, XAV939, was used. For the negative control, no inhibitor is added to the assay mix.
The Tankyrase 2 (TNKS2) enzyme on ice was thawed. The tube containing the enzyme was spun briefly to recover the full content of the tube. The amount of TNKS2 enzyme required for the assay was calculated and the enzyme was diluted to 0.5 ng/μL with 1×PARP assay buffer with DTT. 16) The final concentration of TNKS2 enzyme in the assay was 2 nM. The reaction was initiated by adding 10 μL of diluted TNKS2 enzyme to each well designated “Positive Control” and “Test Inhibitor.” To each well designated as “Blank,” 10 μL of 1×PARP assay buffer with DTT was added. The plate was incubated at room temperature for 1 hour. The plate was washed three times with 100 μL of PBST buffer and the plate was tapped onto a clean paper towel.
1) Streptavidin-HRP was diluted 1:50 in Blocking buffer (purchased from BPS Bioscience) 3.50 μL of diluted Streptavidin-RP was added to each well and incubated for 30 minutes at room temperature. The plate was washed three times with 100 μL of PBST buffer and tapped onto a clean paper towel. Just before use, 1 volume of ELISA ECL Substrate A and 1 volume of ELISA ECL Substrate B were mixed on ice; and 100 μL was added to each well. Immediately, the plate was read in a luminometer or microtiter-plate reader capable of reading chemiluminescence. The “Blank” value was subtracted from all other values.

| SMILES | IC50 (Tankyrase 2 (TNKS2)) | further results |
| --- | --- | --- |
| N#Cc1ccc(-c2nc3c(c(=O)[nH]2)CSCC3)cc1 [Compound 43, 4-(4-oxo-3,5,7,8-tetrahydro-4H-thiopyrano[4,3-d]pyrimidin-2-yl)benzonitrile] |  | IC50 [1]: 1000 nM |
| O=c1[nH]c(-c2ccc(-c3ccc(Br)nc3)c(F)c2)nc2c1CSCC2 [Compound 20, 2-(4-(6-bromopyridin-3-yl)-3-fluorophenyl)-3,5,7,8-tetrahydro-4H-thiopyrano[4,3-d]pyrimidin-4-one] | 4 nM |  |
| COc1cc(-c2nc3c(c(=O)[nH]2)CSCC3)ccc1B(O)O [Compound 32, (2-methoxy-4-(4-oxo-3,5,7,8-tetrahydro-4H-thiopyrano[4,3-d]pyrimidin-2-yl)phenyl)boronic acid] | 111 nM |  |
| O=c1[nH]c(-c2ccc(B(O)O)c(O)c2)nc2c1CSCC2 [Compound 30, (2-hydroxy-4-(4-oxo-3,5,7,8-tetrahydro-4H-thiopyrano[4,3-d]pyrimidin-2-yl)phenyl)boronic acid] | 20 nM |  |
| CC1(C)OB(O)c2ccc(-c3nc4c(c(=O)[nH]3)CSCC4)cc21 [Compound 44, 2-(1-hydroxy-3,3-dimethyl-1,3-dihydrobenzo[c][1,2]oxaborol-5-yl)-3,5,7,8-tetrahydro-4H-thiopyrano[4,3-d]pyrimidin-4-one] | 630 nM |  |
| COC(=O)NCCOC(C)(C)c1ccc(-c2nc3c(c(=O)[nH]2)CSCC3)cc1O [Compound 33, methyl (2-((2-(2-hydroxy-4-(4-oxo-3,5,7,8-tetrahydro-4H-thiopyrano[4,3-d]pyrimidin-2-yl)phenyl)propan-2-yl)oxy)ethyl)carbamate] | 12 nM |  |
| N#Cc1cc(-c2ccc(B(O)O)cc2)ccc1-c1nc2c(c(=O)[nH]1)CSCC2 [Compound 36, (3′-cyano-4′-(4-oxo-3,5,7,8-tetrahydro-4H-thiopyrano[4,3-d]pyrimidin-2-yl)-[1,1′-biphenyl]-4-yl)boronic acid] | 29 nM |  |
| N#Cc1ccc2c(c1)[nH]c(=O)n2[C@H]1C[C@H](c2nc3c(c(=O)[nH]2)CSCC3)C1 [Compound 2, 2-oxo-1-((1r,3r)-3-(4-oxo-3,5,7,8-tetrahydro-4H-thiopyrano[4,3-d]pyrimidin-2-yl)cyclobutyl)-2,3-dihydro-1H-benzo[d]imidazole-5-carbonitrile] |  | HEK CELL Wnt inhibition ([1]; @ >10,000 nM): 60% inhibition @ >10,000 nM |
| O=c1[nH]c(-c2ccc(-c3ccc(Br)cc3)cc2)nc2c1CSCC2 |  | IC50 [1]: 100 nM |
| [2H]C1([2H])CSCc2c1nc(-c1ccc(C(F)(F)F)cc1)[nH]c2=O [Compound 13, 2-(4-(trifluoromethyl)phenyl)-3,5,7,8-tetrahydro-4H-thiopyrano[4,3-d]pyrimidin-4-one-8,8-d2] |  | IC50 [1]: 4 nM |
| O=c1[nH]c(-c2ccc(B(O)O)cc2O)nc2c1CSCC2 [Compound 31, (3-hydroxy-4-(4-oxo-3,5,7,8-tetrahydro-4H-thiopyrano[4,3-d]pyrimidin-2-yl)phenyl)boronic acid] | 3530 nM |  |
| COC(=O)NCCOC(C)(C)c1ccc(-c2nc3c(c(=O)[nH]2)CSCC3)c(C#N)c1 [Compound 38, methyl (2-((2-(3-cyano-4-(4-oxo-3,5,7,8-tetrahydro-4H-thiopyrano[4,3-d]pyrimidin-2-yl)phenyl)propan-2-yl)oxy)ethyl)carbamate] | 72 nM |  |
| COC(=O)NCCOC(C)(C)c1ccc(-c2nc3c(c(=O)[nH]2)CSCC3)cc1OC [Compound 34, methyl (2-((2-(2-methoxy-4-(4-oxo-3,5,7,8-tetrahydro-4H-thiopyrano[4,3-d]pyrimidin-2-yl)phenyl)propan-2-yl)oxy)ethyl)carbamate] | 164 nM |  |
| O=c1[nH]c(N2CCN(c3c(F)cc(OCCO)cc3F)CC2)nc2c1CSCC2 [Compound 42, 2-(4-(2,6-difluoro-4-(2-hydroxyethoxy)phenyl)piperazin-1-yl)-3,5,7,8-tetrahydro-4H-thiopyrano[4,3-d]pyrimidin-4-one] | 9.7 nM |  |
| COC(=O)NCCOC(C)(C)c1ccc(-c2nc3c(c(=O)[nH]2)CSCC3)cc1C [Compound 35, methyl (2-((2-(2-methyl-4-(4-oxo-3,5,7,8-tetrahydro-4H-thiopyrano[4,3-d]pyrimidin-2-yl)phenyl)propan-2-yl)oxy)ethyl)carbamate] | 13 nM |  |
| O=c1[nH]c(-c2ccc(B(O)O)cc2Cl)nc2c1CSCC2 [Compound 40, (3-chloro-4-(4-oxo-3,5,7,8-tetrahydro-4H-thiopyrano[4,3-d]pyrimidin-2-yl)phenyl)boronic acid] | 443 nM |  |
| O=c1[nH]c(-c2ccc(-c3ccnc(Br)c3)cc2)nc2c1CSCC2 [Compound 23, 2-(4-(2-bromopyridin-4-yl)phenyl)-3,5,7,8-tetrahydro-4H-thiopyrano[4,3-d]pyrimidin-4-one] | 14 nM |  |
| O=c1[nH]c(N2CCN(c3ccc(B(O)O)cc3)CC2)nc2c1CSCC2 [Compound 41, (4-(4-(4-oxo-3,5,7,8-tetrahydro-4H-thiopyrano[4,3-d]pyrimidin-2-yl)piperazin-1-yl)phenyl)boronic acid] | 8.7 nM |  |
| COC(=O)NCCOC(C)(C)c1ccc(-c2nc3c(c(=O)[nH]2)CSCC3)cc1C#N [Compound 39, methyl (2-((2-(2-cyano-4-(4-oxo-3,5,7,8-tetrahydro-4H-thiopyrano[4,3-d]pyrimidin-2-yl)phenyl)propan-2-yl)oxy)ethyl)carbamate] | 650 nM |  |
| CC(C)(OCCO)c1c(F)cc(-c2nc3c(c(=O)[nH]2)CSCC3)cc1F [Compound 15, 2-(3,5-difluoro-4-(2-(2-hydroxyethoxy)propan-2-yl)phenyl)-3,5,7,8-tetrahydro-4H-thiopyrano[4,3-d]pyrimidin-4-one] | 90 nM |  |
| N#Cc1cc(B(O)O)ccc1-c1nc2c(c(=O)[nH]1)CSCC2 [Compound 37, (3-cyano-4-(4-oxo-3,5,7,8-tetrahydro-4H-thiopyrano[4,3-d]pyrimidin-2-yl)phenyl)boronic acid] | 16 nM |  |
